# Biological target: T1, KCNT1 (KNa1.1, Slack) (Homo sapiens, UniProt Q5JUK3)
# T1 construct: expressed in transfected cells; host or cells: HEK-TREX (tetracycline-inducible HEK cell line)
# T1 sequence (Q5JUK3 1-1230): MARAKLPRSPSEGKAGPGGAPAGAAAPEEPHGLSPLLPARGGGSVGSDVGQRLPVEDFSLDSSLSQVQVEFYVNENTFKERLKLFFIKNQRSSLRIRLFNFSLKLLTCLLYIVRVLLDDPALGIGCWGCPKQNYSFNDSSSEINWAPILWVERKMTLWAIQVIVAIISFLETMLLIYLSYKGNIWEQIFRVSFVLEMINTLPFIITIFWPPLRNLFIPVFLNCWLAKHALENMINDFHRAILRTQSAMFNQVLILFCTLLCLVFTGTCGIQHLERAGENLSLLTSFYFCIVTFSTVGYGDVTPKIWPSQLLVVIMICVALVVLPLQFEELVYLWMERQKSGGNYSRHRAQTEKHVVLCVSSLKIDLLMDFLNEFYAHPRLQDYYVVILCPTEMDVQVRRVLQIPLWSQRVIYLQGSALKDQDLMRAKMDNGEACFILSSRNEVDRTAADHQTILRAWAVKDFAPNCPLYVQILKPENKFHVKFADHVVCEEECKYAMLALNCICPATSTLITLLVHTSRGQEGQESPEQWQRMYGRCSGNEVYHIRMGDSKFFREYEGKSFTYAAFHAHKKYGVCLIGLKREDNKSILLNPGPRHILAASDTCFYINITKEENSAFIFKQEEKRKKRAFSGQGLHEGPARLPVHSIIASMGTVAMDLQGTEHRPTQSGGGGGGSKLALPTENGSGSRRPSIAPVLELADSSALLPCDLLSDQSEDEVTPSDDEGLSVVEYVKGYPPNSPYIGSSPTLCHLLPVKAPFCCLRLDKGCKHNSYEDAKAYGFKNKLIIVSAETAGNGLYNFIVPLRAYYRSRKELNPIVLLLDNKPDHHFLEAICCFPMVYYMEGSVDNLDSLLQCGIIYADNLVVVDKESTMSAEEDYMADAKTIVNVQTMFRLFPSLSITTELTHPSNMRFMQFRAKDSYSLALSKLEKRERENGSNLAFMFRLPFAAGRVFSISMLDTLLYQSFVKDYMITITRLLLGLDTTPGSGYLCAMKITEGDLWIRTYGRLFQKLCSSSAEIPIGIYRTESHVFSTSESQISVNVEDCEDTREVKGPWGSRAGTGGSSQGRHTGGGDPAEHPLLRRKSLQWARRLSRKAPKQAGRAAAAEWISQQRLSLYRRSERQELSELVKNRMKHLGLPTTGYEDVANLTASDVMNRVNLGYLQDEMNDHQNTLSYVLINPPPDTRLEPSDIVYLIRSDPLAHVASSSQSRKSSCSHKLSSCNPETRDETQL
# Assay: KCNT1 patch clamp assay (SyncroPatch 384PE, HEK-TREX inducible cell line)
# Type: cell-based
# Conditions: wild-type KCNT1, HEK-TREX cells, automated perforated patch clamp, step to 0 mV, room temperature; read-out: KCNT1-WT IC50
# Description: Inhibition of KCNT1 (KNa1.1, Slack) was evaluated using a tetracycline inducible cell line (HEK-TREX). Currents were recorded using the SyncroPatch 384PE automated, patch clamp system. Pulse generation and data collection were performed with PatchController384 V1.3.0 and DataController384 V1.2.1 (Nanion Technologies). The access resistance and apparent membrane capacitance were estimated using built-in protocols. Current were recorded in perforated patch mode (10 μM escin) from a population of cells. The cells were lifted, triturated, and resuspended at 800,000 cells/ml. The cells were allowed to recover in the cell hotel prior to experimentation. Currents were recorded at room temperature. The external solution contained the following (in mM): NaCl 105, NMDG 40, KCl 4, MgCl2 1, CaCl2) 5 and HEPES 10 (pH=7.4, Osmolarity ˜300 mOsm). The extracellular solution was used as the wash, reference and compound delivery solution. The internal solution contained the following (in mM): NaCl 70, KF 70, KCl 10, EGTA 5, HEPES 5 and Escin 0.01 (pH=7.2, Osmolarity ˜295 mOsm). Escin is made at a 5 mM stock in water, aliquoted, and stored at −20° C. The compound plate was created at 2× concentrated in the extracellular solution. The compound was diluted to 1:2 when added to the recording well. The amount of DMSO in the extracellular solution was held constant at the level used for the highest tested concentration. A holding potential of −80 mV with a 100 ms step to 0 mV was used. Mean current was measured during the step to 0 mV. […] The average mean current from 3 sweeps was calculated and the % inhibition of each compound was calculated. The % Inhibition as a function of the compound concentration was fit with a Hill equation to derive IC50, slope, min and max parameters. If KCNT1 inhibition was less than 50% at the highest tested concentration or if an IC50 could not be calculated, then a percent inhibition was reported in place of the IC50.
# In this table, “A” indicates IC50 of less than or equal to 1 μM; “B” indicates inhibition of between 1 μM to 20 μM; and “C” indicates inhibition of greater than or equal to 20 μM.
row,IC50 [µM],SMILES
1,≤ 1,"CC(C)c1cc(C(=O)N[C@@H](C)c2nc(-c3ccnc(C4CC4)c3)no2)n(C)n1 [Compound 1, (S)—N-(1-(3-(2-cyclopropylpyridin-4-yl)-1,2,4-oxadiazol-5-yl)ethyl)-3-isopropyl-1-methyl-1H-pyrazole-5-carboxamide]"
2,≤ 1,"CC(C)n1nccc1C(=O)N[C@@H](C)c1nc(-c2ccnc(C3CC3)c2)no1 [Compound 2, (S)—N-(1-(3-(2-cyclopropylpyridin-4-yl)-1,2,4-oxadiazol-5-yl)ethyl)-1-isopropyl-1H-pyrazole-5-carboxamide]"
3,≤ 1,"C[C@H](NC(=O)c1cc(C2CC2)nn1C)c1nc(-c2ccnc(C3CC3)c2)no1 [Compound 3, (S)-3-cyclopropyl-N-(1-(3-(2-cyclopropylpyridin-4-yl)-1,2,4-oxadiazol-5-yl)ethyl)-1-methyl-1H-pyrazole-5-carboxamide]"
4,≤ 1,"C[C@H](NC(=O)c1cc(C(C)(C)C)nn1C)c1nc(-c2ccnc(C3CC3)c2)no1 [Compound 4, (S)-3-(tert-butyl)-N-(1-(3-(2-cyclopropylpyridin-4-yl)-1,2,4-oxadiazol-5-yl)ethyl)-1-methyl-1H-pyrazole-5-carboxamide]"
5,≤ 1,"CCn1nccc1C(=O)N[C@@H](C)c1nc(-c2ccnc(C3CC3)c2)no1 [Compound 5, (S)—N-(1-(3-(2-cyclopropylpyridin-4-yl)-1,2,4-oxadiazol-5-yl)ethyl)-1-ethyl-1H-pyrazole-5-carboxamide]"
6,≤ 1,"C[C@H](NC(=O)c1ccnn1C(C)(C)C)c1nc(-c2ccnc(C3CC3)c2)no1 [Compound 6, (S)-1-(tert-butyl)-N-(1-(3-(2-cyclopropylpyridin-4-yl)-1,2,4-oxadiazol-5-yl)ethyl)-1H-pyrazole-5-carboxamide]"
7,1 to 20,"C[C@H](NC(=O)c1ccnn1C1CCC1)c1nc(-c2ccnc(C3CCC3)c2)no1 [Compound 7, (S)-1-cyclobutyl-N-(1-(3-(2-cyclobutylpyridin-4-yl)-1,2,4-oxadiazol-5-yl)ethyl)-1H-pyrazole-5-carboxamide]"
8,≤ 1,"C[C@H](NC(=O)c1cc(C(F)F)nn1C)c1nc(-c2ccnc(C3CCC3)c2)no1 [Compound 8, (S)—N-(1-(3-(2-cyclobutylpyridin-4-yl)-1,2,4-oxadiazol-5-yl)ethyl)-3-(difluoromethyl)-1-methyl-1H-pyrazole-5-carboxamide]"
